The values that follow come from patent US5840918A, “Isoprenyl transferase inhibitors” (Eisai Co., Ltd., priority 1997, dated 1998).

Assay [1] addresses T1, FTase (Bos taurus, UniProt P29702+P49355).
T1 construct: bovine brain by inference from the cited Moores et al. 1991
Nature of the assay: Inhibition of FTase-mediated prenylation (in vitro prenylation assay). It is filed as biochemical. The settings on record: Table 1; partially purified FTase, 3 μM recombinant H-ras, 440 nM [3H]FPP, 15 min 37° C. An excerpt: (§1) Nanomolar concentrations of the indicated compounds were sufficient to inhibit farnesylation of ras proteins in vitro. For screening candidate compounds useful for the treatment of ras-associated tumors, the FTase assay is preferred. […] Substitutions which confer GGTase specificity as taught herein also produced potent inhibitors of GGTase.

The subject of assay [2] is H-ras farnesylation in H-ras (61L) transformed NIH3T3 fibroblasts. Nature of the assay: Inhibition of H-ras farnesylation in whole cells (Western blot). It is filed as cell-based, mouse. The protocol: The ability of compounds of the invention to inhibit H-ras farnesylation and rap1 geranylgeranylation in whole cells was determined. H-ras (61L) transformed NIH3T3 fibroblasts were generously provided by C. Der, Univ. N. Carolina. These fibroblasts were treated for 24 h with 50 μM lovastatin (control) or the indicated concentrations of inhibitor. The cells were lysed in 1% NP-40, 5 mM Tris-HCl (pH 8.0), 5 mM EDTA, 0.1 mM N-tosyl-L-phenylalanine chloromethyl ketone, 0.1 mM N-tosyl-L-lysine chloromethyl ketone, and 1 mM phenylmethylsulfonyl fluoride. The lysate was centrifuged (15000×g, 5 min.) and the supernatant was used as a cell extract. […] After transfer to IMMOBILON P™ membrane (Millipore), the blots were probed with LA069 mouse monoclonal antibody to H-ras (Quality Biotech), or rabbit polyclonal antibody to rap1/Krev (Santa Cruz Biotechnology). All Western blots were developed using ECL chemiluminescent reagents (Amersham).
On the technique in general: Immunoblotting shows a protein as a band on a membrane.

The target of assay [3] is GGTase. As to the kind of experiment: Inhibition of GGTase-mediated prenylation (in vitro prenylation assay). It is filed as biochemical. As to conditions: Table 1; partially purified GGTase, 5 μM recombinant H-ras (61L, CAIL), 1 μM [3H] geranylgeranyl diphosphate.
Excerpt: as §1

For assay [4], the system named is H-ras (61L) transformed NIH3T3 fibroblast tumors. Nature of the assay: Inhibition of tumor xenograft in mice, Example E (PM061). It is filed as in vivo, mouse. As to conditions: for T/C (%) Volume / Tumor Volume: day 15. The protocol:
H-ras (61L) transformed NIH3T3 fibroblasts were grown in Dulbecco's modified Eagle's medium supplemented with 10% heat-inactivated calf serum. 100 U/mL penicillin, 100 μg/mL streptomycin, and 0.75 mg/mL G418 (GIBCO) and incubated at 37° C. in 5% CO2. Cells were harvested from exponential-phase maintenance cultures (T-225 cm^2 culture flasks, Corning Inc., Corning, N.Y.) with trypsin-EDTA (GIBCO), centrifuged at 160 ×g for 5 min, washed once with 10 mL cold Hank's balanced salt solution (HBSS, GIBCO), and resuspended at a concentration of 1×10^6 cells/mL.
Five week old female athymic nude mice were obtained from SLC (3371-8, Kotoummachi, Hamamatsu-shi, Shizuoka 431-11, Japan) and maintained under pathogen-free conditions. The mice were subcutaneously injected in the lateral flank with 1×10^5 H-ras transformed cells/mouse.
Inhibitor compound PD331 was suspended in saline containing 2% Tween-80 in a total injection volume of 0.2 mL. Two dosage concentrations were prepared, 0.3 mg/mouse or 1.0 mg/mouse. Compound PD331 was subcutaneously injected daily at the site of tumor cell implantation for 5 consecutive days, starting approximately 8 h after the implantation (day 0). The control group was injected with vehicle only. Body weight and tumor dimensions were measured at days 7, 10, and 14. Tumor volume was estimated by the following calculation: tumor volume =(0.5)(length×width×width). At day 14, each mouse was euthanized with CO2 (g), and each tumor was excised and weighed. The statistical significance was estimated by the Student's T-test.
The same in vivo experiment as Example D above was performed, using compound PM061. Instead of 0.3 mg/mouse and 1.0 mg/mouse, three injection concentrations were prepared (0.5 mg/mouse, 1.0 mg/mouse, and 2.0 mg/mouse). Body weight and tumor size were measured at days 7, 10, and 15. Tumors were excised at day 15.

Where [5] appears, read: Mus musculus, NIH3T3, 24 h, Table 2.

“Also recorded” adds a separate entry of the source. A value given as a limit tells only on which side of the number the result lay.

Usually IC50 stands for the concentration needed to halve the response being measured. As for `CSCC[C@H](NC(=O)c1cc(C/C=C/C(N)CS)ccc1-c1ccccc1)C(=O)O` (some centres unmarked) [PM061], the half-inhibitory concentration (IC50) in assay [1] was 7 nM; in assay [2] (setting [5]) it was 4800 nM; in assay [3] it was 144 nM. For the same compound, the “T/C (%) Volume” value in assay [4] (0.5 mg/mouse s.c.) is given as 90.3%; in assay [4] (1.0 mg/mouse s.c.), 101.8%; in assay [4] (2.0 mg/mouse s.c.), 53.6%. Also, the results for the “Tumor Volume” value in assay [4] (0.5 mg/mouse s.c.), in assay [4] (1.0 mg/mouse s.c.) and in assay [4] (2.0 mg/mouse s.c.) were 2360.4 ± 645.0 µL, 2660.3 ± 756.4 µL and 1400.6 ± 703.2 µL, respectively. In addition, in assay [4] (injection of 2.0 mg), the “tumor volume as % of the tumor volume in the control mouse” value was 53.2%. For the same compound, the “effect on H-ras tumor growth in mice” value in assay [4] (mouse, in vivo) was “had a significant effect on H-ras tumor growth in mice; also recorded: effectively inhibited the growth of ras-associated tumors in mice”.
As for `C[C@H](/C=C/C(N)CS)/C=C/C(Cc1ccccc1)C(=O)N[C@@H](CCC(N)=O)C(=O)O` (some centres unmarked) [PD062], the IC50 in assay [1] came to 200 nM; in assay [2] (Table 2, 24 h), 21000 nM; in assay [3], 1760 nM.
In the case of `CSCC[C@H](NC(=O)c1cc(C/C=C/[C@@H](N)CS)ccc1-c1cc(C(F)(F)F)cc(C(F)(F)F)c1)C(=O)O` [PM042], the IC50 in assay [1] was 3100 nM; in assay [2] (setting [5]), above 500000 nM; in assay [3], 320 nM.
Consider `CC(C)C(/C=C/[C@@H](/C=C/C(N)CS)C(C)C)C(=O)N[C@@H](CCC(N)=O)C(=O)O` (some centres unmarked) [PD022], for which the 50% inhibitory concentration (IC50) was found to be 5.2 nM in assay [1], 400 nM in assay [2] (setting [5]) and 3060 nM in assay [3].
On the same counts, the results for `CC[C@H](C)[C@H](NC[C@@H](/C=C/C(N)CS)C(C)C)C(=O)N[C@@H](CCSC)C(=O)O` (some centres unmarked) [PA051] are 20 nM, 1900 nM and 76 nM.
For `CCOC(=O)[C@H](CCSC)NC(=O)c1cc(C/C=C/C(N)CS)ccc1-c1ccccc1` (some centres unmarked) [PM151] the same measures were 605 nM, 2900 nM and 3870 nM.
On the same counts, the results for `CSCCC(NC(=O)c1cc(CC=CC(N)CSSCC(N)C=CCc2ccc(-c3ccccc3)c(C(=O)NC(CCSC)C(=O)O)c2)ccc1-c1ccccc1)C(=O)O` (centres unmarked) [PM141] are 0.1 nM, 9700 nM and 16 nM.
In the case of `NC(/C=C/Cc1ccc(-c2ccccc2)c(C(=O)N[C@@H](Cc2ccccc2)C(=O)O)c1)CS` (some centres unmarked) [PM172], the IC50 in assay [1] is 56 nM; in assay [2] (setting [5]) it was above 100000 nM; in assay [3], 123 nM.
On the same counts, the results for `COc1ccccc1-c1ccc(C/C=C/C(N)CS)cc1C(=O)N[C@@H](CCSC)C(=O)O` (some centres unmarked) [PM142] are 8 nM, 1100 nM and 72 nM.
Take `CC(C)C(/C=C/[C@@H](/C=C/C(N)CS)C(C)C)C(=O)N[C@@H](CO)C(=O)O` (some centres unmarked) [PD202]: the IC50 in assay [1] is 17 nM; in assay [2] (setting [5]) it was 1950 nM; in assay [3] it was 1120 nM.
For `CSCCC(NC(=O)C(/C=C\[C@@H](/C=C/C(N)CS)C(C)C)C(C)C)C(=O)O` (some centres unmarked) [PD122] the same measures were 3 nM, 400 nM and 10 nM.
For `CC(C)C(/C=C/[C@@H](/C=C/C(N)CS)C(C)C)C(=O)N[C@@H](CCS(C)(=O)=O)C(=O)O` (some centres unmarked) [PD172] the same measures were 7 nM, 13100 nM and 750 nM.
For `COC(=O)[C@H](CCSC)NC(=O)c1cc(C/C=C/C(N)CS)ccc1-c1ccsc1` (some centres unmarked) [PM192] the same measures were 280 nM, 230 nM and 3790 nM.
Regarding `NC(=O)CC[C@H](NC(=O)c1cc(C/C=C/C(N)CS)ccc1-c1ccccc1)C(=O)O` (some centres unmarked) [PM051], the IC50 in assay [1] stood at 0.85 nM; in assay [2] (setting [5]), 23500 nM; in assay [3], 1550 nM.
`CCOC(=O)[C@H](CCSC)NC(=O)C(/C=C/[C@@H](/C=C/C(N)CS)Cc1ccccc1)C(C)C` (some centres unmarked) [PD351]: the IC50 in assay [1] was found to be 320 nM; in assay [2] (setting [5]), 3300 nM; in assay [3] it was 2490 nM.
`COC(=O)[C@H](CCSC)NC(=O)C(Cc1ccccc1)NC[C@@H](/C=C/C(N)CS)C(C)C` (some centres unmarked) [PA091]: the IC50 in assay [1] came to 170 nM; in assay [2] (setting [5]), 100 nM; in assay [3], 2380 nM.
On the same counts, the results for `C=Cc1ccc(C/C=C/C(N)CS)cc1C(=O)N[C@@H](CCSC)C(=O)O` (some centres unmarked) [PM012] are 2 nM, 2700 nM and 520 nM.
`CSCC[C@H](NC(=O)C(Cc1ccccc1)OC[C@@H](/C=C/C(N)CS)C(C)C)C(=O)O` (some centres unmarked) [PE021]: the IC50 in assay [1] worked out at 9 nM; in assay [2] (setting [5]), 280 nM; in assay [3] it was 92 nM.
`NC(C=CCc1ccc(-c2ccsc2)c(C(=O)NC(Cc2cccs2)C(=O)O)c1)CSSCC(N)C=CCc1ccc(-c2ccsc2)c(C(=O)NC(Cc2cccs2)C(=O)O)c1` (centres unmarked) [PM022]: the IC50 in assay [1] is 18 nM; in assay [2] (setting [5]) it was 13100 nM; in assay [3], 130 nM.
